Assay results published in patent US11951108B2, “Combination therapy for treating cancer” (Epizyme, Inc., priority 2016, dated 2024).

Tests used:
MCF-7 = assay: In vitro combination study, breast cancer cell line MCF-7; format: cell-based
MDA-MB-361 = assay: In vitro combination study, breast cancer cell line MDA-MB-361; format: cell-based
MDA-MB-453 = assay: In vitro combination study, breast cancer cell line MDA-MB-453; format: cell-based; conditions: 10 μM
HCC1806 = assay: In vitro combination study, breast cancer cell line HCC1806; format: cell-based
SK-BR-3 = assay: In vitro combination study, breast cancer cell line SK-BR-3; format: cell-based
MDA-MB-436 = assay: In vitro combination study, breast cancer cell line MDA-MB-436; format: cell-based
SUM1315MO2 = assay: In vitro combination study, breast cancer cell line SUM1315MO2; format: cell-based
HCC1954 = assay: In vitro combination study, breast cancer cell line HCC1954; format: cell-based
CAMA-1 = assay: In vitro combination study, breast cancer cell line CAMA-1; format: cell-based; conditions: 10 μM
TOV21G = assay: In vitro combination study, ovarian cancer cell line TOV21G; format: cell-based; conditions: Homo sapiens, read-out: Tazemetostat % inhibition at 20 μM, 20 μM
TYK-NU = assay: In vitro combination study, ovarian cancer cell line TYK-NU; format: cell-based; conditions: read-out: Tazemetostat % inhibition at 20 μM
CAOV-3 = assay: In vitro combination study, ovarian cancer cell line CAOV-3; format: cell-based; conditions: Homo sapiens, read-out: Tazemetostat % inhibition at 20 μM, 20 μM
OVCAR-3 = assay: In vitro combination study, ovarian cancer cell line OVCAR-3; format: cell-based; conditions: Homo sapiens, read-out: Tazemetostat % inhibition at 20 μM
HCC38 = conditions: HCC38; 10 μM
COV504 = assay: cells; conditions: COV504, read-out: Tazemetostat % inhibition at 20 μM
COV434 = assay: cells; conditions: COV434, read-out: Tazemetostat % inhibition at 20 μM
BT474 = assay: In vitro combination study, breast cancer cell line BT474; conditions: 10 μM
BT549 = assay: In vitro combination study, breast cancer cell line BT549; conditions: 10 μM
BT-20 = assay: In vitro combination study, breast cancer cell line BT-20; conditions: 10 μM
ES-2 = assay: In vitro combination study, ovarian cancer cell line ES-2; conditions: 20 μM
DU4475 = assay: In vitro combination study, breast cancer cell line DU4475; conditions: 10 μM
ZR-75-1 = assay: In vitro combination study, breast cancer cell line ZR-75-1
OVISE = assay: In vitro combination study, ovarian cancer cell line OVISE; conditions: read-out: Tazemetostat % inhibition at 20 μM
OV-90 = assay: In vitro combination study, ovarian cancer cell line OV-90; conditions: Homo sapiens, OV-90, read-out: Tazemetostat % inhibition at 20 μM
RMUGS* = assay: In vitro combination study, ovarian cancer cell line RMUGS; conditions: 20 μM
OAW42 = assay: In vitro combination study, ovarian cancer cell line OAW42; conditions: Homo sapiens, OAW-42, read-out: Tazemetostat % inhibition at 20 μM
SKOV3 = assay: In vitro combination study, ovarian cancer cell line SKOV3; conditions: 20 μM
A2780 = assay: In vitro combination study, ovarian cancer cell line A2780; conditions: Homo sapiens, A2780, read-out: Tazemetostat % inhibition at 20 μM
HCC1569 = assay: In vitro combination study, breast cancer cell line HCC1569
SUM52PE = assay: In vitro combination study, breast cancer cell line SUM52PE; conditions: 10 μM
HCC1143 = assay: In vitro combination study, breast cancer cell line HCC1143; conditions: 10 μM
HCC1187 = assay: In vitro combination study, breast cancer cell line HCC1187; conditions: 10 μM
HCC1937 = assay: In vitro combination study, breast cancer cell line HCC1937; conditions: 10 μM
HCC1419 = assay: In vitro combination study, breast cancer cell line HCC1419; conditions: 10 μM
OVMANA = assay: In vitro combination study, ovarian cancer cell line OVMANA; conditions: read-out: Tazemetostat % inhibition at 20 μM
COV362 = assay: In vitro combination study, ovarian cancer cell line COV362; conditions: COV362, read-out: Tazemetostat % inhibition at 20 μM
OVSAHO = assay: In vitro combination study, ovarian cancer cell line OVSAHO; conditions: Homo sapiens, read-out: Tazemetostat % inhibition at 20 μM
JH)S-4 = assay: In vitro combination study, ovarian cancer cell line JH)S-4; conditions: 20 μM
COV644* = assay: In vitro combination study, ovarian cancer cell line COV644; conditions: read-out: Tazemetostat % inhibition at 20 μM
SNU840 = assay: In vitro combination study, ovarian cancer cell line SNU840; conditions: SNU-840, read-out: Tazemetostat % inhibition at 20 μM
SUM159PT = assay: In vitro combination study, breast cancer cell line SUM159PT; conditions: 10 μM
TOV112D = assay: In vitro combination study, ovarian cancer cell line TOV112D; conditions: 20 μM
MDA-MB-231 = assay: In vitro combination study, breast cancer cell line MDA-MB-231; conditions: 10 μM
MDA-MB-468 = assay: In vitro combination study, breast cancer cell line MDA-MB-468
KURAMOCHI = assay: In vitro combination study, ovarian cancer cell line KURAMOCHI; conditions: read-out: Tazemetostat % inhibition at 20 μM
MDA-MB-175VII = assay: In vitro combination study, breast cancer cell line MDA-MB-175VII; conditions: 10 μM

## CCN(c1cc(-c2ccc(CN3CCOCC3)cc2)cc(C(=O)NCc2c(C)cc(C)[nH]c2=O)c1C)C1CCOCC1 [Tazemetostat, tazemetostat]
MCF-7
  Tazemetostat sensitivity at 10 μM (%): 50%
MDA-MB-361
  Tazemetostat sensitivity at 10 μM (%): 10%
MDA-MB-453
  Tazemetostat sensitivity at 10 μM (%): 40%
HCC1806
  Tazemetostat sensitivity at 10 μM (%): 40%
SK-BR-3
  Tazemetostat sensitivity at 10 μM (%): 70%
MDA-MB-436
  Tazemetostat sensitivity at 10 μM (%): 10%
SUM1315MO2
  Tazemetostat sensitivity at 10 μM (%): 35%
HCC1954
  Tazemetostat sensitivity at 10 μM (%): 0%
CAMA-1
  Tazemetostat sensitivity at 10 μM (%): 30%
TOV21G
  inhibition at 20 µM: 40%
TYK-NU
  inhibition at 20 µM: 0%
CAOV-3
  inhibition at 20 µM: 0%
OVCAR-3
  inhibition at 20 µM: 0%
EFM-19
  Tazemetostat sensitivity at 10 μM (%): 20%
HCC1395
  Tazemetostat sensitivity at 10 μM (%): 25%
HCC38
  Tazemetostat sensitivity at 10 μM (%): 20%
MDA-MB-157
  Tazemetostat sensitivity at 10 μM (%): 0%
SUM149PT
  Tazemetostat sensitivity at 10 μM (%): 30%
HCC202
  Tazemetostat sensitivity at 10 μM (%): 0%
HCC70
  Tazemetostat sensitivity at 10 μM (%): 35%
COV504
  inhibition at 20 µM: 30%
COV434
  inhibition at 20 µM: 50%
BT474
  Tazemetostat sensitivity at 10 μM (%): 0%
BT549
  Tazemetostat sensitivity at 10 μM (%): 40%
BT-20
  Tazemetostat sensitivity at 10 μM (%): 0%
ES-2
  Tazemetostat % inhibition at 20 μM: 0%
DU4475
  Tazemetostat sensitivity at 10 μM (%): 35%
ZR-75-1
  Tazemetostat sensitivity at 10 μM (%): 40%
OVISE
  inhibition at 20 µM: 0%
OV-90
  inhibition at 20 µM: 15%
RMUGS*
  Tazemetostat % inhibition at 20 μM: −20%
OAW42
  inhibition at 20 µM: 15%
SKOV3
  Tazemetostat % inhibition at 20 μM: 15%
A2780
  inhibition at 20 µM: 35%
HCC1569
  Tazemetostat sensitivity at 10 μM (%): 20%
SUM52PE
  Tazemetostat sensitivity at 10 μM (%): 50%
HCC1143
  Tazemetostat sensitivity at 10 μM (%): 0%
HCC1187
  Tazemetostat sensitivity at 10 μM (%): 0%
HCC1937
  Tazemetostat sensitivity at 10 μM (%): 20%
HCC1419
  Tazemetostat sensitivity at 10 μM (%): 0%
OVMANA
  inhibition at 20 µM: 20%
COV362
  inhibition at 20 µM: 0%
OVSAHO
  inhibition at 20 µM: 0%
JH)S-4
  Tazemetostat % inhibition at 20 μM: −20%
COV644*
  inhibition at 20 µM: 10%
SNU840
  inhibition at 20 µM: 25%
SUM159PT
  Tazemetostat sensitivity at 10 μM (%): 50%
TOV112D
  Tazemetostat % inhibition at 20 μM: 20%
MDA-MB-231
  Tazemetostat sensitivity at 10 μM (%): 0%
MDA-MB-468
  Tazemetostat sensitivity at 10 μM (%): 30%
KURAMOCHI
  inhibition at 20 µM: 20%
MDA-MB-175VII
  Tazemetostat sensitivity at 10 μM (%): 10%
